Source: patent US20070149456A1, “Epithelial sodium channel inhibiting agents and uses therefor” (University of Pittsburgh, priority 2005, published 2007)
Entries after “also recorded” stand apart in the source; their conditions may differ.

Target: T1, αRtripleAβγ (Mus musculus, UniProt Q61180+Q9WU38+Q9WU39, R205A/R208A/R231A)
T1 construct: expressed in transfected cells; host or cells: Xenopus laevis oocytes (cRNA injection)
T1 sequence (Q61180 1-699 R205A/R208A/R231A): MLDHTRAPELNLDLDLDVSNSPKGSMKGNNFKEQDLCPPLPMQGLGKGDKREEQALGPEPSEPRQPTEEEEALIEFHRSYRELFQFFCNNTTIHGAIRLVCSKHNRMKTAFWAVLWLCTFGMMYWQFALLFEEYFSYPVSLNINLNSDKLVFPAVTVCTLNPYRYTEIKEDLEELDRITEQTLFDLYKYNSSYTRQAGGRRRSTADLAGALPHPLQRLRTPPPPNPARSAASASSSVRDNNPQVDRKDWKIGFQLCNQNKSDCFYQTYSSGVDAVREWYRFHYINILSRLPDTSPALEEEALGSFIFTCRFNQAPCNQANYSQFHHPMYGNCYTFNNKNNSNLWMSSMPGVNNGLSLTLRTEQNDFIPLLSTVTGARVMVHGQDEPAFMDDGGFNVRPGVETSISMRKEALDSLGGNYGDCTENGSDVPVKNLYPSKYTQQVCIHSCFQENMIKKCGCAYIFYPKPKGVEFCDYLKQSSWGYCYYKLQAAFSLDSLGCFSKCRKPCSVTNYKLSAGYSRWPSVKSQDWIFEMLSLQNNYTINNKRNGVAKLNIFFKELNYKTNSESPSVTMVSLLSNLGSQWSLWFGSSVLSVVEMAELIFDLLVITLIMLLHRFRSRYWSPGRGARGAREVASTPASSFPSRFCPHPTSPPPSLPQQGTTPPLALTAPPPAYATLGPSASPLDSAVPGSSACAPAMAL
T1 sequence (Q9WU38 1-638): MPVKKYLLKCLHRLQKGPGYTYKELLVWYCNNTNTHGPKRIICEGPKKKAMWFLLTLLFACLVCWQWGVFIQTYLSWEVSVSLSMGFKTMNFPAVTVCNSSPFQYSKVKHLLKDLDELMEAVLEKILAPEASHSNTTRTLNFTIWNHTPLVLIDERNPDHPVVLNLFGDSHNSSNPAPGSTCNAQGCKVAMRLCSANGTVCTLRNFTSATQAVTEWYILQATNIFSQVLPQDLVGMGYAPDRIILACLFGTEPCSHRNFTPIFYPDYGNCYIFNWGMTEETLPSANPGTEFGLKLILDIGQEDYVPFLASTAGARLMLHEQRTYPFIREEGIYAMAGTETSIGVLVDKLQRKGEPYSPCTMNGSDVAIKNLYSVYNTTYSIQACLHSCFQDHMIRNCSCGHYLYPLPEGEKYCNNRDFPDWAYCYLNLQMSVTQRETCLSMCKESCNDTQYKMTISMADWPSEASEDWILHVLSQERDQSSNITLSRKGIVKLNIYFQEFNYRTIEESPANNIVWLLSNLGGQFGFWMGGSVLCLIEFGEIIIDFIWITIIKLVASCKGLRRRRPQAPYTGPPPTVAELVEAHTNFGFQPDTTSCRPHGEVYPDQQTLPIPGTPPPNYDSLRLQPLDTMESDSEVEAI
T1 sequence (Q9WU39 1-655): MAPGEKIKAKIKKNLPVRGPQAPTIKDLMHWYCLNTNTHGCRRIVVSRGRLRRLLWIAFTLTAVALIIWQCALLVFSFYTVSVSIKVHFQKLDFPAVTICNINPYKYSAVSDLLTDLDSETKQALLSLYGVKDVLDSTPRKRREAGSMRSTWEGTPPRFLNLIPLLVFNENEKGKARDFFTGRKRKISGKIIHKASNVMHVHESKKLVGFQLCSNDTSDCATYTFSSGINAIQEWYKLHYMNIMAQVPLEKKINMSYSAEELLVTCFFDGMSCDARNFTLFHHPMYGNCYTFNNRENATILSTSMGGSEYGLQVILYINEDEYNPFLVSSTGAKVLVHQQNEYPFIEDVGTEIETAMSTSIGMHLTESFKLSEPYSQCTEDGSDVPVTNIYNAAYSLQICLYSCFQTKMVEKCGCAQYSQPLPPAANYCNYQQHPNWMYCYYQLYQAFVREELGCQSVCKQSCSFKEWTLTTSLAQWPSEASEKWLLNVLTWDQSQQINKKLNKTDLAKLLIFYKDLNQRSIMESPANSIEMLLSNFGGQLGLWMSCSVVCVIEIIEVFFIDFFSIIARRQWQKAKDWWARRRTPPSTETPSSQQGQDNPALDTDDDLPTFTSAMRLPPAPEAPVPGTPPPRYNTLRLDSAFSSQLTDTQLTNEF
Test: Two-electrode voltage clamp in oocytes expressing channels lacking furin cleavage of the α subunit
Format: cell-based
Conditions: 1 μM α-26
Text: Oocyte Expression—cRNAs for α, β, γ mouse ENaC (wild-type and mutant) subunits and mouse prostasin were synthesized with T3 or T7 m-Message mMachineTM (Ambion, Austin, Tex.). Subunits carrying furin cleavage consensus site mutations and the corresponding wild-type subunits have amino-terminal HA and carboxyl-terminal V5 tags (Hughey, R. P., Bruns, J. B., Kinlough, C. L., Harkleroad, K. L., Tong, Q., Carattino, M. D., Johnson, J. P., Stockand, J. D., and Kleyman, T. R. (2004) J. Biol. Chem. 279, 18111-18114 18). Stage V-VI Xenopus laevis oocytes were pretreated with 1.5 mg/ml of type IV collagenase and injected with 0.5-2 ng of cRNA/subunit. Injected oocytes were maintained as previously reported (Carattino, M. D., Hill, W. G., and Kleyman, T. R. (2003), Arachidonic Acid Regulates Surface Expression of Epithelial Sodium Channels, J Biol. Chem. 278, 36202-36213 29).
Two-electrode Voltage Clamp—Two-electrode voltage clamp (TEV) was performed as previously described (Carattino, M. D., Hill, W. G., and Kleyman, T. R. (2003) J Biol. Chem. 278, 36202-36213 29). The extracellular solution (TEV solution) was (in mM): 110 NaCl, 2 KCl, 1.54 CaCl2, 10 HEPES, pH 7.4, or otherwise as indicated. […] ENaC-mediated whole cell Na^+ currents, at −60 mV,were defined as the amiloride-sensitive component of the current. […]

Ac-DLRGALPHPLQRLRTPPPPNPARSAR-NH2 [α-26]
block of channels: does not block; also recorded: not blocked
